The PolyMetriX glass transition set
± gives the standard deviation of the reports.

glass transition temperature [°C]	SMILES
50.00	*CC(*)C(=O)OCC1(CC)COC(c2ccccc2)OC1 (repeat unit)
286.00	*C(=O)c1ccc2c(c1)C(=O)N(c1ccc(C(=O)c3ccc(C(=O)c4ccc(N5C(=O)c6ccc(*)cc6C5=O)cc4)cc3)cc1)C2=O (repeat unit)
225.00	*Oc1ccc(Oc2ccc(C(=O)c3ccc(*)cc3)cc2)cc1S(=O)(=O)O (repeat unit)
94.00	*CCCCCCNC(=O)/C=C(\C)C(=O)N* (repeat unit)
206.50	*NC(=O)Nc1ccc(Cc2ccc(NC(=O)Nc3cccc(*)n3)cc2)cc1 (repeat unit)
220.50	*c1ccc(Oc2ccc(N3C(=O)c4ccc(Oc5cc6ccccc6cc5Oc5ccc6c(c5)C(=O)N(*)C6=O)cc4C3=O)cc2)cc1 (repeat unit)
220.00	*Oc1ccc(S(=O)(=O)c2ccc(Oc3cccc(NC(=O)c4ccc(-c5ccc(C(=O)Nc6cccc(*)c6)c(C)c5)cc4C)c3)cc2)cc1 (repeat unit)
226.00	*c1ccc(Oc2ccc(N3C(=O)c4cccc(Oc5cccc(Oc6cccc7c6C(=O)N(*)C7=O)c5)c4C3=O)cc2)cc1 (repeat unit)
-75.00	*O[Si](*)(C)CCC(F)(F)C(F)(F)C(F)(F)C(F)(F)F (repeat unit)
61.00	*/C=C/c1cc(OCC(CC)CCCC)c(/C=C/c2ccc3c4ccc(*)cc4n(CC(CC)CCCC)c3c2)cc1OCC(CC)CCCC (repeat unit)
175.00	*CCCC1(CCCNC(=O)c2cccc(C(=O)N*)c2)c2ccccc2-c2ccccc21 (repeat unit)
225.00	*Oc1ccc(-c2ccc(Oc3ccc(C(=O)c4ccc(*)c(S(=O)(=O)O)c4)cc3S(=O)(=O)O)cc2)cc1 (repeat unit)
61.10	*O[Si](*)(C)CCCCCCCCCCC(=O)Oc1ccc(-c2ccc(OC(=O)c3ccc(OCCCCCCC)cc3)cc2)cc1 (repeat unit)
175.00	*/C=C/c1cc(OC)c(/C=C/c2ccc(/C=C(\Oc3ccccc3)c3ccc(/C(=C/c4ccc(*)cc4)c4ccc(Oc5ccccc5)cc4)cc3)cc2)cc1OC (repeat unit)
-38.00	*CCOCCOCCOCCOC(=O)CCSCCC(=O)O* (repeat unit)
34.00	*CC(*)(CC(=O)OCCOC)C(=O)OCCOC (repeat unit)
218.00	*CN1C(=O)c2ccc(C(c3ccc4c(c3)C(=O)N(Cc3nc5ccc(Cc6ccc7nc(*)oc(=O)c7c6)cc5c(=O)o3)C4=O)(C(F)(F)F)C(F)(F)F)cc2C1=O (repeat unit)
64.00	*c1cc(CC(=O)OCCCCCCOc2ccc(/N=N/c3ccc(C#N)cc3)cc2)c(*)s1 (repeat unit)
278.00	*c1ccc(Oc2ccc(N3C(=O)CC(C4C=C(C)C5C(=O)N(*)C(=O)C5C4)C3=O)cc2)cc1 (repeat unit)
286.00	*Nc1ccc(Cc2ccc(NC(=O)c3cc(C(*)=O)cc(N4C(=O)C5CC=CCC5C4=O)c3)cc2)cc1 (repeat unit)
107.00	*Oc1ccc(C(C)(C)c2ccc(Oc3cccc(*)n3)cc2)cc1 (repeat unit)
194.50	*C(C)C(*)C(=O)OC12CC3CC(C)(CC(C)(C3)C1)C2 (repeat unit)
150.00	*C1C(=O)N(CCOc2ccc(-c3ccc(C#N)cc3)cc2)C(=O)C1* (repeat unit)
21.90	*CCOCCOC(=O)c1ccc(C(=O)O*)cc1 (repeat unit)
230.00	*c1ccc(Oc2ccc(N3C(=O)c4ccc(Oc5ccc(C6(c7ccc(Oc8ccc9c(c8)C(=O)N(*)C9=O)cc7)CCCCCCCCCCC6)cc5)cc4C3=O)cc2)cc1 (repeat unit)
143.00	*Oc1cccc(Oc2ccc(C(=O)c3ccc(NC(=O)CCCCCCCCC(=O)Nc4ccc(C(=O)c5ccc(*)cc5)cc4)cc3)cc2)c1 (repeat unit)
-16.10	*O[Si](C)(C)C#C[Si](C)(C)C#C[Si](C)(C)C#C[Si](C)(C)C#C[Si](C)(C)C#C[Si](*)(C)C (repeat unit)

glass transition temperature [°C]	SMILES
300.00	*C(=O)c1ccc2c(c1)C(=O)N(c1ccc(C(=O)Nc3ccc(N4C(=O)c5ccc(*)cc5C4=O)cc3)cc1)C2=O (repeat unit)
300.00	*C(=O)Nc1ccc(C(=O)Nc2ccc(NC(=O)c3ccc4[nH]c(-c5ccc(-c6nc7cc(*)ccc7[nH]6)cc5)nc4c3)cc2)cc1 (repeat unit)
111.00	*CC(O)COc1ccc(C(C)(C)c2ccc(OCC(O)COc3cccc(NC(=O)CCCC(=O)Nc4cccc(O*)c4)c3)cc2)cc1 (repeat unit)
181.50	*CCCCCCN1C(=O)C(=O)N(c2ccc(C)c(N3C(=O)C(=O)N(*)C3=O)c2)C1=O (repeat unit)
74.00	*Oc1cccc(C(F)(F)C(F)(F)C(F)(F)c2cccc(OC(=O)c3cccc(C(F)(F)C(F)(F)C(F)(F)c4cccc(C(*)=O)c4)c3)c2)c1 (repeat unit)
34.00	*CCCCCCCCCCOC(=O)NNC(=O)CCCCCCCCC(=O)NNC(=O)O* (repeat unit)
101.00	*Oc1ccc(Oc2ccc(Oc3cccc(C(=O)Oc4ccc(OC(=O)c5cccc(*)c5)cc4)c3)cc2)cc1 (repeat unit)
125.00	*c1ccc(NC(=O)c2ccc(OCCOCCOCCOCCOCCOc3ccc(C(=O)Nc4ccc5[nH]c(*)nc5c4)cc3)cc2)cc1 (repeat unit)
122.00	*OC(COC(=O)c1ccc(C(*)=O)cc1)COc1ccc(/N=N/c2ccc(C#N)cc2)cc1 (repeat unit)
301.00	*c1ccc2c(c1)C(=O)N(c1ccc(Sc3ccc(N4C(=O)c5ccc(C(*)(C(F)(F)F)C(F)(F)F)cc5C4=O)cc3)cc1)C2=O (repeat unit)
166.00	*C(=O)Oc1ccc(C(C)(C)c2ccc(OC(=O)c3ccc4c(c3)C(=O)N(c3ccc(-c5ccc(N6C(=O)c7ccc(*)cc7C6=O)cc5C)c(C)c3)C4=O)cc2)cc1 (repeat unit)
202.00	*c1ccc(Oc2cccc(Oc3ccc(N4C(=O)c5cccc(Oc6ccc(Sc7ccc(Oc8cccc9c8C(=O)N(*)C9=O)cc7)cc6)c5C4=O)cc3)c2)cc1 (repeat unit)
-9.00	*CCCCCCOC(=O)OCCCCCCCCCCCCOC(=O)OCCCCCCn1c(=O)c2cc3c(=O)n(*)c(=O)c3cc2c1=O (repeat unit)
89.31	*CCCCC(=O)Oc1ccc(OC(=O)c2ccc3c(c2)C(=O)N(*)C3=O)cc1 (repeat unit)
-36.00	*/C=[CH]/[Ge]([*])([c]1ccccc1)[c]1ccccc1 (repeat unit)
367.00	*C(=O)c1cc2c(cc1Cl)C(=O)N(c1cc(Cl)c(N3C(=O)c4cc(*)c(Cl)cc4C3=O)cc1Cl)C2=O (repeat unit)
240.00	*c1ccc(Oc2ccc(-c3nnc(*)o3)cc2)cc1 (repeat unit)
325.00	*C(=O)c1ccc2nc(-c3ccc(-c4nc5ccc(*)cc5nc4-c4ccccc4)cc3)c(-c3ccccc3)nc2c1 (repeat unit)
193.00	*NNC(=O)c1ccc(C(*)=O)cc1OCCCCCCCCCC (repeat unit)
90.00	*Nc1cc(NC(=O)c2ccccc2C(*)=O)cc(-c2nnc(-c3ccccn3)o2)c1 (repeat unit)
140.00	*CC(*)(C)C(=O)OCC(C)Oc1ccc(-c2ccc(-c3ccc(C#N)cc3)cc2)cc1 (repeat unit)
345.00	*Oc1cc(Oc2ccc(NC(=O)c3cc(NC(=O)C45CC6CC(CC(C6)C4)C5)cc(C(=O)Nc4ccc(*)cc4)c3)cc2)ccc1C12CC3CC(CC(C3)C1)C2 (repeat unit)
45.00	*CC(*)c1ccccc1C(=O)OCCCCCC (repeat unit)
107.00	*CCCCCCC(=O)Oc1ccc(-c2ccc(OC(=O)c3ccc4c(c3)C(=O)N(*)C4=O)cc2)cc1 (repeat unit)
198.00	*/C(C#N)=C/c1cc(OCCCCCCCCCC)c(/C=C(\C#N)c2cc(OCCCCCCCCCC)c(*)cc2OC)cc1OC (repeat unit)
244.00	*c1cccc(C(=O)Nc2ccc(Oc3ccc(Oc4ccc(Oc5ccc(NC(=O)c6cccc(N7C(=O)c8ccc(-c9ccc%10c(c9)C(=O)N(*)C%10=O)cc8C7=O)c6)cc5)cc4)cc3)cc2)c1 (repeat unit)

SMILES	glass transition temperature [°C]
*CC(COCOCC(C)([N+](=O)[O-])[N+](=O)[O-])O* (repeat unit)	-15.00
*CC(*)CCCI (repeat unit)	30.00
*CC(*)C=C (repeat unit) [Poly(1,2-butadiene)]	-6.08 ± 1.3
*CC(*)C(=O)Oc1ccc([N+](=O)[O-])cc1 (repeat unit)	73.30
*c1cccc(P(=O)(c2cccc(N3C(=O)c4ccc(Oc5ccc6c(c5)C(=O)N(*)C6=O)cc4C3=O)c2)c2cc(C(F)(F)F)cc(C(F)(F)F)c2)c1 (repeat unit)	228.00
*CC(*)c1ccccc1COC(C)C (repeat unit)	88.00
*CC(*)N1CCCC1=S (repeat unit)	80.00
*CCCP(CCCNC(=O)CCCCC(=O)N*)CC(C)C (repeat unit)	71.00
*/C=C/CCCCCC* (repeat unit)	-78.00
*CCCOC(=O)O* (repeat unit)	-17.70
*CC(*)(F)C(=O)OCC(F)(F)C(F)(F)F (repeat unit)	99.00
*CCCCCCCCCCOC(=O)O* (repeat unit)	-37.00
*CCSSCCO* (repeat unit)	-53.00
*C#Cc1cccc(C#C[Si](*)(C)C)c1 (repeat unit)	50.00
*CCC(*)(C)c1ccccc1 (repeat unit)	93.00
*CCC1CC(*)C2C3CC(CC)C(C3)C12 (repeat unit)	138.00
*CC(*)C(=O)OCCO (repeat unit)	20.70
